Measurements as given in PubChem BioAssay AID652018 (The Scripps Research Institute Molecular Screening Center, 2013).
Calls of active or inactive are those of the source.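 Rule for the calls: active = at least 50% inhibition of LYPLA1 or LYPLA2 at 300 nM, with no off-target enzyme hit at any dose; inactive = under 50% inhibition on both enzymes, or any off-target hit.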

Legend:
[1] = target: Acyl-protein thioesterase 2 (Homo sapiens) (UniProt O95372); assay: LYPLA1 inhibitor selectivity over serine hydrolases, late-stage follow-up, selectivity assay for LYPLA1 inhibitor project, cell lysate, competitive ABPP, HEK293T proteome, set 2 (AID 652018); conditions: competitive ABPP FP-PEG-Rh gel, stronger effect = higher value;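 note: 0% = DMSO-only band intensity and 100% = blank gel background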
[2] = target: Acyl-protein thioesterase 1 (Homo sapiens) (UniProt O75608); assay: as above; conditions: competitive ABPP FP-PEG-Rh gel, stronger effect = higher value
Acyl-protein thioesterase 1 (Homo sapiens), sequence (O75608 whole entry, looked up): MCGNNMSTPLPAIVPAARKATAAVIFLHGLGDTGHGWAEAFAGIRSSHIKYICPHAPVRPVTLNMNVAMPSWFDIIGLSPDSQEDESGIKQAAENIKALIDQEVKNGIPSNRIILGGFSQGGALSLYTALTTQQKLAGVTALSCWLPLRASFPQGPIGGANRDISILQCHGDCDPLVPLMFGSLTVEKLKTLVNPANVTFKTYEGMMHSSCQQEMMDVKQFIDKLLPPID

Acyl-protein thioesterase 2 (Homo sapiens), sequence (O95372 whole entry, looked up): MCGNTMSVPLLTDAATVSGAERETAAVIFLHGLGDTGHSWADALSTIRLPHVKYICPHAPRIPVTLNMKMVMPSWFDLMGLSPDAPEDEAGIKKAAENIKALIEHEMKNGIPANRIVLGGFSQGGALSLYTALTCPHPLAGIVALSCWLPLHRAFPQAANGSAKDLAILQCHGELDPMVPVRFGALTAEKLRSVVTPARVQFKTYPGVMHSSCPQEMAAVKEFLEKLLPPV

Row | Compound | inhibition ([1]; LYPLA2, at 10 µM) | inhibition ([1]; LYPLA2, inhibition, at 0.3 µM) | inhibition ([1]; LYPLA2, inhibition, at 1 µM) | inhibition ([2]; LYPLA1, at 10 µM) | inhibition ([2]; LYPLA1, inhibition, at 0.3 µM) | inhibition ([2]; LYPLA1, inhibition, at 1 µM)
1 | COc1ccc(N2CCN(C(=O)n3ccnn3)CC2)cc1 | 85% (inactive) | 10% | 30% | 90% (inactive) | 20% | 50%
2 | O=C(CN1CCN(C(=O)n2ncc(-c3ccc(Br)cc3)n2)CC1)Nc1cc(C(F)(F)F)ccc1Cl | 75% | 50% | 40% | 80% | 70% | 70%
3 | COc1ccc(N2CCN(C(=O)n3nccn3)CC2)cc1 | 100% (inactive) | 10% | 60% | 95% (inactive) | 20% | 80%
4 | O=C(CN1CCN(C(=O)n2nc(Br)c(Br)n2)CC1)Nc1cc(C(F)(F)F)ccc1Cl | 100% | 85% | 100% | 95% | 90% | 90%
5 | COc1ccc(N2CCN(C(=O)n3nc(Br)c(Br)n3)CC2)cc1 | 100% | 50% | 80% | 95% | 85% | 95%
6 | COc1ccc(N2CCN(C(=O)n3cc(-c4ccc(OC(F)(F)F)cc4)nn3)CC2)cc1 | 60% (inactive) | 10% | 10% | 80% (inactive) | 20% | 20%
7 | O=C(CN1CCN(C(=O)n2cc(-c3ccc(-c4ccccc4)cc3)nn2)CC1)Nc1cc(C(F)(F)F)ccc1Cl | 30% (inactive) | 30% | 30% | 30% (inactive) | 30% | 30%
8 | COc1ccc(N2CCN(C(=O)n3cncn3)CC2)cc1 | 95% (inactive) | 10% | 30% | 95% (inactive) | 20% | 75%
9 | O=C(CN1CCN(C(=O)n2ncc(-c3ccc(OC(F)(F)F)cc3)n2)CC1)Nc1cc(C(F)(F)F)ccc1Cl | 95% (inactive) | 30% | 30% | 90% (inactive) | 30% | 30%
10 | O=C(CN1CCN(C(=O)n2cncn2)CC1)Nc1cc(C(F)(F)F)ccc1Cl | 30% (inactive) | 30% | 30% | 30% (inactive) | 30% | 30%
11 | O=C(CN1CCN(C(=O)n2cc(-c3ccc(OC(F)(F)F)cc3)nn2)CC1)Nc1cc(C(F)(F)F)ccc1Cl | 30% (inactive) | 30% | 30% | 60% (inactive) | 30% | 30%
12 | COc1ccc(N2CCN(C(=O)n3nc(Br)nc3Br)CC2)cc1 | 95% (inactive) | 10% | 30% | 95% (inactive) | 20% | 60%
13 | O=C(CN1CCN(C(=O)n2nccn2)CC1)Nc1cc(C(F)(F)F)ccc1Cl | 95% (inactive) | 30% | 40% | 95% (inactive) | 30% | 60%
14 | O=C(CN1CCN(C(=O)n2nc(Br)nc2Br)CC1)Nc1cc(C(F)(F)F)ccc1Cl | 100% (inactive) | 40% | 75% | 95% (inactive) | 45% | 85%

Continued, values first:

Row | inhibition ([1]; LYPLA2, at 10 µM) | inhibition ([1]; LYPLA2, inhibition, at 0.3 µM) | inhibition ([1]; LYPLA2, inhibition, at 1 µM) | inhibition ([2]; LYPLA1, at 10 µM) | inhibition ([2]; LYPLA1, inhibition, at 0.3 µM) | inhibition ([2]; LYPLA1, inhibition, at 1 µM) | Compound
15 | 30% (inactive) | 10% | 30% | 30% (inactive) | 20% | 30% | COc1ccc(N2CCN(C(=O)n3ncc(-c4ccccc4)n3)CC2)cc1
16 | 30% (inactive) | 20% | 30% | 80% (inactive) | 30% | 40% | O=C(N1CCN(c2ccc(Cl)c(Cl)c2)CC1)n1ncc(C(O)(c2ccccc2)c2ccccc2)n1
17 | 100% | 75% | 100% | 95% | 95% | 95% | COc1ccc(N2CCN(C(=O)n3ncc(C(O)(c4ccccc4)c4ccccc4)n3)CC2)cc1
18 | 100% | 60% | 85% | 95% | 80% | 90% | O=C(CN1CCN(C(=O)n2cc(C(O)(c3ccccc3)c3ccccc3)nn2)CC1)Nc1cc(C(F)(F)F)ccc1Cl
19 | 100% (inactive) | 20% | 95% | 95% | 85% | 95% | COc1ccc(N2CCN(C(=O)n3cc(C(O)(c4ccccc4)c4ccccc4)nn3)CC2)cc1
20 | 20% (inactive) | 10% | 10% | 20% (inactive) | 10% | 10% | COc1ccc(N2CCN(C(=O)n3ncc(-c4ccc(OC(F)(F)F)cc4)n3)CC2)cc1
21 | 100% | 100% | 100% | 95% | 95% | 95% | O=C(CN1CCN(C(=O)n2ncc(C(O)(c3ccccc3)c3ccccc3)n2)CC1)Nc1cc(C(F)(F)F)ccc1Cl
22 | 30% (inactive) | 30% | 30% | 30% (inactive) | 30% | 30% | O=C(CN1CCN(C(=O)n2ncc(-c3ccc(-c4ccccc4)cc3)n2)CC1)Nc1cc(C(F)(F)F)ccc1Cl
23 | 80% (inactive) | 20% | 30% | 100% (inactive) | 40% | 90% | O=C(N1CCN(c2ccc(Br)cc2)CC1)n1ncc(C(O)(c2ccccc2)c2ccccc2)n1
